*1 amine or outer side, *2 acyl side, *3 side chain or, on linkers, in order; H or OH if unused. Where a SMILES comes first, the peptide text is derived from it. [ ]: non-standard residue; d: D form. X1 = O=C(CCc1cccc2c1oc1c(CCN[*:1])cccc12)[*:2]
Tests used:
Jurkat cells = assay: CellTiter-Glo cell viability assay, Jurkat cells
Caco-2 cells = assay: CellTiter-Glo cell viability assay, Caco-2 cells
[1] = target: T1, CD2–CD58 interaction (adhesion between T cells (Jurkat, CD2) and Caco-2 cells (CD58)) (Homo sapiens, UniProt P19256); assay: Lymphocyte-epithelial adhesion assay; assay type: cell-based; details: concentration range 0.0005 to 150 µM
T1 sequence (P19256 29-250): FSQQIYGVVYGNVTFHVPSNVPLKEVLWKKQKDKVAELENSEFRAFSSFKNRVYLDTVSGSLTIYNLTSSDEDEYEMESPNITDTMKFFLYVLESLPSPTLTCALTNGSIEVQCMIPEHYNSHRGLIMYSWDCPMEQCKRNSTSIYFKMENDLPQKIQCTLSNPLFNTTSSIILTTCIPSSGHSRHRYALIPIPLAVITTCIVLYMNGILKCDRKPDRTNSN

## CC[C@H](C)[C@@H]1NC(=O)[C@H](Cc2ccc(O)cc2)NC(=O)[C@H](CC(=O)O)NC(=O)CCc2cccc3c2Oc2c(cccc2-3)CCNC(=O)[C@H](CC(=O)O)NC(=O)[C@H](CC(=O)O)NC(=O)[C@H](CCCCN)NC1=O [Peptide 7] (cyclo(DD[X1]DYIK))
Jurkat cells
  toxicity effects on T cells: did not show any toxicity effects
Caco-2 cells
  toxicity effects on Caco-2 cells: did not show any toxicity effects

## KGKTDAISVKAI-NH2 [control peptide]
[1]
  cell adhesion inhibition in the lymphocyte epithelial assay: ~18%

Source: paper PMC3171192 (Journal of medicinal chemistry, 2011)
